Experimental data published in PMC8453635, “Piperidine Azasugars Bearing Lipophilic Chains: Stereoselective Synthesis and Biological Activity as Inhibitors of Glucocerebrosidase (GCase)” (The Journal of Organic Chemistry, 2021).

Target: T1, β-galactosidase (Homo sapiens, UniProt P16278)
T1 construct: from leukocytes isolated from healthy donors (controls); from tissue; host or cells: leukocytes from healthy donors, sonicated homogenate
T1 sequence (P16278 29-677): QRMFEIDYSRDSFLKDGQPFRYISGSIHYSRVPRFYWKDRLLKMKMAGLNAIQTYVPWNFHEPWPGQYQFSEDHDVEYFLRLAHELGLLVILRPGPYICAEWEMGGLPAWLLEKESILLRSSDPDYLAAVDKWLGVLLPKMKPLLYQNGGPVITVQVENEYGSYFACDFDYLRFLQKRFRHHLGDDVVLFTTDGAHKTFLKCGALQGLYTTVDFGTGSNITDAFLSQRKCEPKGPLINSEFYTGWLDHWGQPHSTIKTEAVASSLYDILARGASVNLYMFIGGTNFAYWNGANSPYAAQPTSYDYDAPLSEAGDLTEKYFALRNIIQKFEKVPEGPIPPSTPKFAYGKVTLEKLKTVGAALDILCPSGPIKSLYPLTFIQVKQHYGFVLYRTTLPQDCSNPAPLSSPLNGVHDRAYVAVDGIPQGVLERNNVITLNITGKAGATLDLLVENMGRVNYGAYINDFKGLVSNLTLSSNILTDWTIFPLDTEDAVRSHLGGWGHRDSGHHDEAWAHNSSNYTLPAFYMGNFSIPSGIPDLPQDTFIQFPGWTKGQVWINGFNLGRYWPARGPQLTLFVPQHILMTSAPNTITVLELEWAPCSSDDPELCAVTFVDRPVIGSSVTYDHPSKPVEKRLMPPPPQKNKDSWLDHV
Test: Human lysosomal glycosidase selectivity screening (leukocyte homogenate)
Format: biochemical
Details: 1 mM, read-out: percentage of inhibition, β-Gal
Method: In order to avoid undesired inhibitory side effects of a potential new drug, it has to be selective for a given target. The selectivity of the newly synthesized compounds 14, 15, and 33·HCl toward GCase was then investigated, evaluating their inhibition at 1 mM concentration toward six other lysosomal glycosidases (namely, α-and β-mannosidases, α- and β-galactosidases, α-fucosidase, and α-glucosidase) in cell homogenates (leucocytes or lymphocytes) isolated from healthy donors. […] Indeed, only moderate inhibitory activity (ca. 50%) was found toward human β-galactosidase for both piperidines 14 and 15, while negligible inhibitory activity was detected in all other cases.
The effect of 1 mM concentration of 14, 15, and 33·HCl was assayed toward six lysosomal glycosidases other than GCase, namely, α-mannosidase, β-mannosidase, α-galactosidase, β-galactosidase, α-fucosidase from leukocytes isolated from healthy donors (controls) and α-glucosidase from lymphocytes isolated from healthy donors’ flesh blood (controls). […]
μL, Sigma –Aldrich) in acetate buffer (0.1M, pH 4.3) containing NaCl (0.1M) and sodium azide (0.02%) were incubated at 37 °C for 1 h. The reaction was stopped by addition o f sodium carbonate (200 μL; 0.5M, pH 10.7) containing Triton X -100 (0.0025 %), and the fluorescence 4 -methylumbelliferone released by β-galactosidase activity was measured in SpectraMax M2 microplate reader ( λex=365 nm, λem=435 nm; Molecular Devices). […]
α-Fucosidase activity was measured in a flat -bottomed 96 -well plate. […]
α-Glucosidase activity was measured in a flat –bottomed 96 well plate. […] The reaction was stopped by the addition of a solution of sodium carbonate (200 µL; 0.5M, pH 10.7) containing Triton X -100 (0.0025 %), and the fluorescence of 4 -methylumbelliferone released by α-glucosidase activity was measured in […]
Figure S 48. […] The corresponding calculated percentage of inhibition is indicated above each bar.

SMILES | inhibition at 1000 µM [%]
CCCCCCCC[C@@H]1[C@@H](O)[C@H](O)[C@H](O)CN1C(CCCCCCC)CCCCCCC.Cl [compound 33·HCl, (2R,3R,4R,5R)-2-Octyl-1-(pentadecan-8-yl)-piperidine-3,4,5-triol Hydrochloride] | 15
CCCCCCCC[C@H]1[C@@H](O)[C@H](O)[C@H](O)CN1CCCCCCCC [compound 14, (2S,3R,4R,5R)-1,2-Dioctylpiperidine-3,4,5-triol] | 48
CCCCCCCC[C@@H]1[C@@H](O)[C@H](O)[C@H](O)CN1CCCCCCCC [compound 15, (2R,3R,4R,5R)-1,2-Dioctylpiperidine-3,4,5-triol] | 51
